Test results from ChEMBL document CHEMBL5236598, “Lead Optimization and Avoidance of Metabolic-perturbing Motif Developing Novel Diarylpyrimidines as Potent HIV-1 NNRTIs” (J Med Chem, 2022).

Assays:
[1] = tested on: Human immunodeficiency virus 1; test: Antiviral activity against wild type HIV-1 IIIB infected in human MT4 cells assessed as protection against virus-induced cytopathic effect incubated for 5 days by MTT assay; assay type: functional, organism-based; settings: Human immunodeficiency virus 1, IIIB, MT4, 120 h
[2] = tested on: Human immunodeficiency virus 1; test: Antiviral activity against HIV-1 RES056 harboring RT K103N/Y181C double mutant infected in human MT4 cells assessed as protection against virus-induced cytopathic effect incubated for 5 days by MTT assay; assay type: functional, organism-based; settings: Human immunodeficiency virus 1, RES056, MT4, 120 h
[3] = Cytotoxicity against human MT4 cells assessed as reduction in cell viability measured after 5 days by MTT assay; assay type: toxicity, cell-based; settings: time 5 day
[4] = tested on: Human immunodeficiency virus 1; test: Antiviral activity against HIV-1 harboring RT K103N mutant infected in human MT4 cells assessed as protection against virus-induced cytopathic effect incubated for 5 days by MTT assay; assay type: functional, organism-based; settings: Human immunodeficiency virus 1, MT4, 120 h
[5] = tested on: Human immunodeficiency virus 1; test: Antiviral activity against HIV-1 harboring RT Y188L mutant infected in human MT4 cells assessed as protection against virus-induced cytopathic effect incubated for 5 days by MTT assay; assay type: functional, organism-based; settings: Human immunodeficiency virus 1, MT4, 120 h
[6] = tested on: Human immunodeficiency virus 1; test: Antiviral activity against HIV-1 harboring RT E138K mutant infected in human MT4 cells assessed as protection against virus-induced cytopathic effect incubated for 5 days by MTT assay; assay type: functional, organism-based; settings: Human immunodeficiency virus 1, MT4, 120 h
[7] = tested on: Human immunodeficiency virus 1; test: Antiviral activity against HIV-1 harboring RT F227L/V106A double mutant infected in human MT4 cells assessed as protection against virus-induced cytopathic effect incubated for 5 days by MTT assay; assay type: functional, organism-based; settings: Human immunodeficiency virus 1, MT4, 120 h
[8] = Selectivity index, ratio of CC50 for cytotoxicity against human MT4 cells to EC50 for antiviral activity against wild type HIV-1 IIIB infected in human MT4 cells; assay type: toxicity, cell-based; settings: read-out: Ratio CC50/EC50
[9] = Selectivity index, ratio of CC50 for cytotoxicity against human MT4 cells to EC50 for antiviral activity against HIV-1 RES056 harboring RT K103N/Y181C double mutant infected in human MT4 cells; assay type: toxicity, cell-based; settings: read-out: Ratio CC50/EC50
[10] = tested on: Human immunodeficiency virus 1; test: Antiviral activity against HIV-1 harboring RT L100I mutant infected in human MT4 cells assessed as protection against virus-induced cytopathic effect incubated for 5 days by MTT assay; assay type: functional, organism-based; settings: Human immunodeficiency virus 1, MT4, 120 h
[11] = tested on: Human immunodeficiency virus 1; test: Antiviral activity against HIV-1 harboring RT Y181C mutant infected in human MT4 cells assessed as protection against virus-induced cytopathic effect incubated for 5 days by MTT assay; assay type: functional, organism-based; settings: Human immunodeficiency virus 1, MT4, 120 h
[12] = target: Human immunodeficiency virus type 1 reverse transcriptase (Human immunodeficiency virus 1, UniProt Q72547); test: Inhibition of wild type recombinant HIV-1 reverse transcriptase using biotin-labelled dNTPs as substrate assessed as inhibition of biotin-labelled UTP incorporation incubated for 1 hr by ELISA
[13] = Metabolic stability in human liver microsomes assessed as half life preincubated for 10 mins followed by NADPH regenerating system addition and measured after 2 hrs by LC-MS/MS analysis; assay type: ADME, Microsome; settings: time 130 min

Cc1cc(C#N)cc(C)c1Oc1nc(Nc2ccc(C#N)cc2)nc(N)c1Br [ETRAVIRINE]
EC50 [1]: 3.3 nM | EC50 [2]: 76.2 nM | CC50 at 120 h [3]: > 4610 nM | EC50 [4]: 4.3 nM | EC50 [5]: 25.1 nM | EC50 [6]: 18.1 nM | EC50 [7]: 25.4 nM

N#C/C=C/c1cc(F)c(Oc2nc(Nc3ccc(C#N)c(F)c3)nc3c2COC3)c(F)c1
EC50 [1]: 1.67 nM | EC50 [2]: 314 nM | CC50 at 120 h [3]: 243000 nM | selectivity ratio [8]: 145000 | selectivity ratio [9]: 773 | EC50 [10]: 6.9 nM | EC50 [4]: 2.41 nM | EC50 [11]: 13.9 nM | EC50 [5]: 214 nM | EC50 [6]: 3.45 nM | EC50 [7]: 384 nM | IC50 [12]: 30 nM

C[C@]12CC[C@H]3[C@@H](CCC4=CC(=O)CC[C@@]43C)[C@@H]1CC[C@@H]2O [TESTOSTERONE]
half-life [13]: 11.1 min

N#C/C=C/c1cc(F)c(Oc2nc(Nc3ccc(C#N)nc3)nc3cc[nH]c23)c(F)c1
EC50 [1]: 147 nM | EC50 [2]: > 29000 nM | CC50 at 120 h [3]: 29000 nM | selectivity ratio [8]: 197 | selectivity ratio [9]: < 1

N#C/C=C/c1cc(F)c(Oc2nc(Nc3ccc(C#N)c(F)c3)nc3cc[nH]c23)c(F)c1
EC50 [1]: 38 nM | EC50 [2]: 630 nM | CC50 at 120 h [3]: 10200 nM | selectivity ratio [8]: 268 | selectivity ratio [9]: 16

Cc1cc(C#N)cc(C)c1Oc1nc(NC2CCN(c3ccc([N+](=O)[O-])cc3F)CC2)nc2ccsc12
EC50 [1]: 32.1 nM | EC50 [2]: > 30300 nM | CC50 at 120 h [3]: 740000 nM | selectivity ratio [8]: 23100 | selectivity ratio [9]: < 1

Cc1cc(-c2ccc(C#N)cc2)cc(C)c1Oc1nc(Nc2ccc(C#N)c(F)c2)nc2ccsc12
EC50 [1]: 711 nM | EC50 [2]: 6350 nM | CC50 at 120 h [3]: 71500 nM | selectivity ratio [8]: 101 | selectivity ratio [9]: 11

Cc1cc(C#N)cc(C)c1Oc1nc(NC2CCN(c3c(F)cc(NS(N)(=O)=O)cc3F)CC2)nc2ccsc12
EC50 [1]: 35.3 nM | EC50 [2]: 7510 nM | CC50 at 120 h [3]: 12600 nM | selectivity ratio [8]: 357 | selectivity ratio [9]: 2

Cc1cc(C#N)cc(C)c1Oc1nc(NC2CCN(c3ccc(NS(N)(=O)=O)cc3F)CC2)nc2ccsc12
EC50 [1]: 22.9 nM | EC50 [2]: 4930 nM | CC50 at 120 h [3]: 24700 nM | selectivity ratio [8]: 1080 | selectivity ratio [9]: 5

Cc1cc(-c2ccc(F)cc2)cc(C)c1Oc1nc(Nc2ccc(C#N)nc2)nc2ccsc12
EC50 [1]: 451 nM | EC50 [2]: > 6130 nM | CC50 at 120 h [3]: 6130 nM | selectivity ratio [8]: 14 | selectivity ratio [9]: < 1

Cc1cc(C#N)cc(C)c1Oc1nc(NC2CCN(c3c(F)cc([N+](=O)[O-])cc3F)CC2)nc2sccc12
EC50 [1]: 45.1 nM | EC50 [2]: > 211000 nM | CC50 at 120 h [3]: > 233000 nM | selectivity ratio [8]: > 5170 | selectivity ratio [9]: < 1

Cc1cc(/C=C/C#N)cc(C)c1Oc1nc(Nc2ccc(C#N)c(F)c2)nc2cc[nH]c12
EC50 [1]: 4470 nM | EC50 [2]: 45800 nM | CC50 at 120 h [3]: 188000 nM | selectivity ratio [8]: 42 | selectivity ratio [9]: 4.1

Cc1cc(C#N)cc(C)c1Oc1nc(NC2CCN(c3c(F)cc(N)cc3F)CC2)nc2sccc12
EC50 [1]: 32.5 nM | EC50 [2]: > 5450 nM | CC50 at 120 h [3]: 5450 nM | selectivity ratio [8]: 168 | selectivity ratio [9]: < 1

Cc1cc(/C=C/C#N)cc(C)c1Oc1nc(Nc2ccc(C#N)nc2)nc2c1COC2
EC50 [1]: 2.4 nM | EC50 [2]: 71.7 nM | CC50 at 120 h [3]: 213000 nM | selectivity ratio [8]: 88900 | selectivity ratio [9]: 2980 | EC50 [10]: 6.64 nM | EC50 [4]: 1.34 nM | EC50 [11]: 9.75 nM | EC50 [5]: 44.6 nM | EC50 [6]: 3.23 nM | EC50 [7]: 110 nM | IC50 [12]: 40 nM
